Test results published in the supplement of paper PMC7840683.
± gives the standard deviation of the averaged measurements.

Test system: HepaRG
Test: LDH release cytotoxicity, % of total lysis control; higher = more cytotoxic
Settings: 48 h
Outline: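 Single-lot HepaRG cells in collagen I-coated 96-well plates were treated for 48 h in serum-free induction medium containing 0.5% DMSO with test chemicals in eight-point half-log series up to 100 µM. For total lysis, wells received 0.1% Triton X. LDH in 50 µL spent medium was assayed by resorufin fluorescence with CytoTox-ONE. Percent cytotoxicity was normalized to the on-plate vehicle and total lysis controls, with duplicates averaged.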

Cc1cc(C)c(O)c(C)c1 [2,4,6-Trimethylphenol]
LDH release cytotoxicity (0.03162 µM): -0.941 ± 0.86% | LDH release cytotoxicity (0.1 µM): -0.527 ± 0.093% | LDH release cytotoxicity (0.3162278 µM): -0.0601 ± 1% | LDH release cytotoxicity (1 µM): -1.16 ± 0.46% | LDH release cytotoxicity (3.16228 µM): -0.619 ± 0.33% | LDH release cytotoxicity (10 µM): -0.296 ± 0.75% | LDH release cytotoxicity (31.6228 µM): 0.116 ± 0.41% | LDH release cytotoxicity (100 µM): 0.371 ± 1.2%

CC(C)(C)c1cc(C(C)(C)C)c(O)c(C(C)(C)C)c1 [2,4,6-Tris(tert-butyl)phenol]
LDH release cytotoxicity (0.03162 µM): -0.34 ± 0.36% | LDH release cytotoxicity (0.1 µM): -0.143 ± 0.55% | LDH release cytotoxicity (0.3162278 µM): -0.16 ± 0.35% | LDH release cytotoxicity (1 µM): -0.404 ± 0.24% | LDH release cytotoxicity (3.16228 µM): -0.476 ± 0.26% | LDH release cytotoxicity (10 µM): 0.204 ± 1.6% | LDH release cytotoxicity (31.6228 µM): -0.0327 ± 1.8% | LDH release cytotoxicity (100 µM): 0.75 ± 0.75%

CC(C)CC(C)(O)C#CC(C)(O)CC(C)C (stereo not given) [2,4,7,9-Tetramethyl-5-decyne-4,7-diol]
LDH release cytotoxicity (0.03162 µM): -0.689 ± 0.26% | LDH release cytotoxicity (0.1 µM): -0.678 ± 0.45% | LDH release cytotoxicity (0.3162278 µM): -0.883 ± 0.019% | LDH release cytotoxicity (1 µM): -1.4 ± 0.25% | LDH release cytotoxicity (3.16228 µM): -0.76 ± 0.5% | LDH release cytotoxicity (10 µM): -0.333 ± 0.27% | LDH release cytotoxicity (31.6228 µM): 0.979 ± 0.2% | LDH release cytotoxicity (100 µM): 2.91 ± 0.27%

CC(C)(c1ccccc1)c1ccc(O)c(C(C)(C)c2ccccc2)c1 [2,4-Bis(1-methyl-1-phenylethyl)phenol]
LDH release cytotoxicity (0.03162 µM): -0.358 ± 0.3% | LDH release cytotoxicity (0.1 µM): -1.13 ± 0.14% | LDH release cytotoxicity (0.3162278 µM): -0.577 ± 0.043% | LDH release cytotoxicity (1 µM): -1.2 ± 1.5% | LDH release cytotoxicity (3.16228 µM): -1.41 ± 0.08% | LDH release cytotoxicity (10 µM): -0.479 ± 0.49% | LDH release cytotoxicity (31.6228 µM): -0.0613 ± 0.39% | LDH release cytotoxicity (100 µM): 0.487 ± 0.24%

CC(C)(C)c1ccc(O)c(C(C)(C)C)c1 [2,4-Di-tert-butylphenol]
LDH release cytotoxicity (0.03162 µM): -2.05 ± 0.42% | LDH release cytotoxicity (0.1 µM): -1.71 ± 0.24% | LDH release cytotoxicity (0.3162278 µM): -1.9 ± 1.1% | LDH release cytotoxicity (1 µM): -2.07 ± 0.9% | LDH release cytotoxicity (3.16228 µM): -1.83 ± 0.043% | LDH release cytotoxicity (10 µM): -1.53 ± 0.18% | LDH release cytotoxicity (31.6228 µM): -0.783 ± 0.87% | LDH release cytotoxicity (100 µM): 0.8 ± 0.4%

CCC(C)(C)c1ccc(O)c(C(C)(C)CC)c1 [2,4-Di-tert-pentylphenol]
LDH release cytotoxicity (0.03162 µM): 0.622 ± 0.85% | LDH release cytotoxicity (0.1 µM): -1.25 ± 0.82% | LDH release cytotoxicity (0.3162278 µM): -0.993 ± 0.16% | LDH release cytotoxicity (1 µM): -1.77 ± 0.046% | LDH release cytotoxicity (3.16228 µM): -1.69 ± 0.36% | LDH release cytotoxicity (10 µM): -1.3 ± 0.39% | LDH release cytotoxicity (31.6228 µM): -1.19 ± 0.04% | LDH release cytotoxicity (100 µM): 0.754 ± 0.54%

Cc1ccc(N)cc1N [2,4-Diaminotoluene]
LDH release cytotoxicity (0.031623 µM): -1.84 ± 0.43% | LDH release cytotoxicity (0.1 µM): -0.98 ± 2.2% | LDH release cytotoxicity (0.316228 µM): -1.49 ± 1.2% | LDH release cytotoxicity (1 µM): -2.17 ± 0.74% | LDH release cytotoxicity (3.16228 µM): -1.86 ± 1.7% | LDH release cytotoxicity (10 µM): -1.56 ± 0.44% | LDH release cytotoxicity (31.6228 µM): -1.29 ± 0.18% | LDH release cytotoxicity (100 µM): -0.394 ± 0.68%

Oc1ccc(Cl)cc1Cl [2,4-Dichlorophenol]
LDH release cytotoxicity (0.03305 µM): -0.867 ± 0.13% | LDH release cytotoxicity (0.1045 µM): -1.22 ± 0.36% | LDH release cytotoxicity (0.330458 µM): -1.99 ± 0.46% | LDH release cytotoxicity (1.045 µM): -1.67 ± 0.36% | LDH release cytotoxicity (3.30458 µM): -1.98 ± 0.042% | LDH release cytotoxicity (10.45 µM): -1.68 ± 0.079% | LDH release cytotoxicity (33.0458 µM): -2.38 ± 0.071% | LDH release cytotoxicity (104.5 µM): -0.904 ± 0.016%

O=C(O)COc1ccc(Cl)cc1Cl [2,4-Dichlorophenoxyacetic acid]
LDH release cytotoxicity (0.03162 µM): -2.81 ± 0.75% | LDH release cytotoxicity (0.1 µM): -3.06 ± 0.11% | LDH release cytotoxicity (0.3162278 µM): -3.35 ± 0.81% | LDH release cytotoxicity (1 µM): -3.21 ± 0.55% | LDH release cytotoxicity (3.16228 µM): -3.24 ± 0.42% | LDH release cytotoxicity (10 µM): -3.79 ± 0.69% | LDH release cytotoxicity (31.6228 µM): 48.3 ± 0.8% | LDH release cytotoxicity (100 µM): 69.9 ± 2%

O=C(O)CCCOc1ccc(Cl)cc1Cl [2,4-Dichlorophenoxybutyric acid]
LDH release cytotoxicity (0.03162 µM): -2.25 ± 0.88% | LDH release cytotoxicity (0.1 µM): -0.951 ± 0.37% | LDH release cytotoxicity (0.3162278 µM): -1.77 ± 0.11% | LDH release cytotoxicity (1 µM): -1.33 ± 0.28% | LDH release cytotoxicity (3.16228 µM): -1.43 ± 0.78% | LDH release cytotoxicity (10 µM): -0.351 ± 0.14% | LDH release cytotoxicity (31.6228 µM): -1.14 ± 0.056% | LDH release cytotoxicity (100 µM): 0.81 ± 0.16%

Cc1ccc(O)c(C)c1 [2,4-Dimethylphenol]
LDH release cytotoxicity (0.03162 µM): -0.236 ± 0.8% | LDH release cytotoxicity (0.1 µM): -1.06 ± 0.065% | LDH release cytotoxicity (0.3162278 µM): -0.554 ± 0.3% | LDH release cytotoxicity (1 µM): -0.084 ± 0.78% | LDH release cytotoxicity (3.16228 µM): 0.0582 ± 0.56% | LDH release cytotoxicity (10 µM): -0.172 ± 0.66% | LDH release cytotoxicity (31.6228 µM): -0.59 ± 0.59% | LDH release cytotoxicity (100 µM): -0.251 ± 0.47%

O=[N+]([O-])c1ccc(O)c([N+](=O)[O-])c1 [2,4-Dinitrophenol]
LDH release cytotoxicity (0.03162 µM): -0.273 ± 0.077% | LDH release cytotoxicity (0.1 µM): -1.23 ± 0.39% | LDH release cytotoxicity (0.3162278 µM): -0.515 ± 0.069% | LDH release cytotoxicity (1 µM): -1 ± 0.71% | LDH release cytotoxicity (3.16228 µM): -0.876 ± 0.33% | LDH release cytotoxicity (10 µM): 0.105 ± 0.71% | LDH release cytotoxicity (31.6228 µM): 0.264 ± 0.47% | LDH release cytotoxicity (100 µM): 0.252 ± 0.21%

CC(C)(C)c1cc(O)c(C(C)(C)C)cc1O [2,5-Di-tert-butylbenzene-1,4-diol]
LDH release cytotoxicity (0.03162 µM): -1.42 ± 0.46% | LDH release cytotoxicity (0.1 µM): -1.56 ± 0.33% | LDH release cytotoxicity (0.3162278 µM): -1.72 ± 1.2% | LDH release cytotoxicity (1 µM): -1.69 ± 0.27% | LDH release cytotoxicity (3.16228 µM): -1.49 ± 0.41% | LDH release cytotoxicity (10 µM): -1.94 ± 0.31% | LDH release cytotoxicity (31.6228 µM): -1.04 ± 0.88% | LDH release cytotoxicity (100 µM): -1.46 ± 0.39%

CC(C)(C)OOC(C)(C)CCC(C)(C)OOC(C)(C)C [2,5-Dimethyl-2,5-di-(tert-butylperoxy)hexane]
LDH release cytotoxicity (0.03162 µM): -1.07 ± 0.59% | LDH release cytotoxicity (0.1 µM): -0.939 ± 1% | LDH release cytotoxicity (0.3162278 µM): -0.841 ± 0.2% | LDH release cytotoxicity (1 µM): -0.347 ± 0.56% | LDH release cytotoxicity (3.16228 µM): -0.34 ± 0.39% | LDH release cytotoxicity (10 µM): -0.223 ± 0.53% | LDH release cytotoxicity (31.6228 µM): 1.22 ± 1.1% | LDH release cytotoxicity (100 µM): 2.2 ± 1.6%

Cc1ccc(C)c(O)c1 [2,5-Dimethylphenol]
LDH release cytotoxicity (0.03162 µM): -1.02 ± 1% | LDH release cytotoxicity (0.1 µM): -1.37 ± 0.38% | LDH release cytotoxicity (0.3162278 µM): -1.74 ± 0.34% | LDH release cytotoxicity (1 µM): -1.34 ± 0.19% | LDH release cytotoxicity (3.16228 µM): -1.4 ± 0.44% | LDH release cytotoxicity (10 µM): -0.854 ± 0.043% | LDH release cytotoxicity (31.6228 µM): -0.822 ± 0.1% | LDH release cytotoxicity (100 µM): 0.0909 ± 0.18%

CN(C)CCCN(C)CCCN(C)C [2,6,10-Trimethyl-2,6,10-triazaundecane]
LDH release cytotoxicity (0.03162 µM): -1.25 ± 0.61% | LDH release cytotoxicity (0.1 µM): -1.63 ± 0.4% | LDH release cytotoxicity (0.3162278 µM): -2.17 ± 0.18% | LDH release cytotoxicity (1 µM): -1.73 ± 0.24% | LDH release cytotoxicity (3.16228 µM): -1.82 ± 0.067% | LDH release cytotoxicity (10 µM): -1.78 ± 0.98% | LDH release cytotoxicity (31.6228 µM): -0.82 ± 0.7% | LDH release cytotoxicity (100 µM): -0.216 ± 0.84%

CC(C)(C)c1cccc(C(C)(C)C)c1O [2,6-Di-tert-butylphenol]
LDH release cytotoxicity (0.03162 µM): -1.46 ± 0.98% | LDH release cytotoxicity (0.1 µM): -2.07 ± 0.79% | LDH release cytotoxicity (0.3162278 µM): -1.81 ± 0.93% | LDH release cytotoxicity (1 µM): -2.85 ± 0.3% | LDH release cytotoxicity (3.16228 µM): -2.37 ± 0.99% | LDH release cytotoxicity (10 µM): -2.01 ± 0.62% | LDH release cytotoxicity (31.6228 µM): -2.37 ± 1.6% | LDH release cytotoxicity (100 µM): -2.35 ± 1.9%

CCc1cccc(CC)c1N [2,6-Diethylaniline]
LDH release cytotoxicity (0.03162 µM): -1.27 ± 1.1% | LDH release cytotoxicity (0.1 µM): -2.24 ± 0.81% | LDH release cytotoxicity (0.3162278 µM): -1.42 ± 0.19% | LDH release cytotoxicity (1 µM): -0.395 ± 0.46% | LDH release cytotoxicity (3.16228 µM): -0.592 ± 0.21% | LDH release cytotoxicity (10 µM): -1.25 ± 1.1% | LDH release cytotoxicity (31.6228 µM): -0.819 ± 0.47% | LDH release cytotoxicity (100 µM): -0.482 ± 0.8%

Cc1cccc(C)c1N [2,6-Dimethylaniline]
LDH release cytotoxicity (0.03162 µM): -1.3 ± 1.2% | LDH release cytotoxicity (0.1 µM): -0.274 ± 0.54% | LDH release cytotoxicity (0.3162278 µM): -0.695 ± 1.3% | LDH release cytotoxicity (1 µM): -2 ± 0.2% | LDH release cytotoxicity (3.16228 µM): -1.29 ± 0.67% | LDH release cytotoxicity (10 µM): -1.03 ± 0.33% | LDH release cytotoxicity (31.6228 µM): -0.842 ± 0.55% | LDH release cytotoxicity (100 µM): 3.28 ± 2.6%

Cc1cccc(C)c1O [2,6-Dimethylphenol]
LDH release cytotoxicity (0.03162 µM): -1.24 ± 1.2% | LDH release cytotoxicity (0.1 µM): -0.897 ± 0.56% | LDH release cytotoxicity (0.3162278 µM): -1.931 ± 0.0097% | LDH release cytotoxicity (1 µM): -1.91 ± 0.97% | LDH release cytotoxicity (3.16228 µM): -1.66 ± 0.091% | LDH release cytotoxicity (10 µM): -1.73 ± 0.19% | LDH release cytotoxicity (31.6228 µM): -0.524 ± 1.1% | LDH release cytotoxicity (100 µM): 0.122 ± 0.94%
